Laboratory results: patent US6737383B1, “Herbicidal oxadiazolidines” (priority 1999, dated 2004)

Columns and labels:
blackgrass = assay: Test B pre/postemergence blackgrass; assay type: in vivo, Alopecurus myosuroides
How it was run: (§1)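 Herbicidal effect was estimated by eye on a ten-point control scale after plants spent twelve to sixteen days in a greenhouse following soil or foliar treatment. Foliar sprays targeted plants at one to four leaves; all doses were formulated in a non-phytotoxic solvent with surfactant.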

cocklebur = assay: Test B pre/postemergence cocklebur; assay type: in vivo, Xanthium strumarium
How it was run: as §1

corn = assay: Test B pre/postemergence corn; assay type: in vivo, Zea mays
How it was run: as §1

crabgrass = assay: Test B pre/postemergence crabgrass; assay type: in vivo, Digitaria sanguinalis
How it was run: as §1

giant foxtail = assay: Test B pre/postemergence giant foxtail; assay type: in vivo, Setaria faberii
How it was run: as §1

morningglory = assay: Test B pre/postemergence morningglory; assay type: in vivo, Ipomoea hederacea
How it was run: as §1

pigweed = assay: Test B pre/postemergence pigweed; assay type: in vivo, Amaranthus retroflexus; details: for Plant response rating, Redroot pigweed: Postemergence
How it was run: as §1

rape = assay: Test B pre/postemergence rape; assay type: in vivo, Brassica napus
How it was run: as §1

soybean = assay: Test B pre/postemergence soybean; assay type: in vivo, Glycine max; details: for Plant response rating, Soybean: Postemergence
How it was run: as §1

sugar beet = assay: Test B pre/postemergence sugar beet; assay type: in vivo, Beta vulgaris; details: for Plant response rating, Sugarbeets: Postemergence
How it was run: as §1

velvetleaf = assay: Test B pre/postemergence velvetleaf; assay type: in vivo, Abutilon theophrasti; details: for Plant response rating, Velvetleaf: Postemergence
How it was run: as §1

wheat = assay: Test B pre/postemergence wheat; assay type: in vivo, Triticum aestivum; details: for Plant response rating, Wheat: Postemergence
How it was run: as §1

purple nutsedge = assay: Test B pre/postemergence purple nutsedge; assay type: in vivo, Cyperus rotundus
How it was run: as §1

rice = assay: Test B flood test rice; assay type: in vivo, Oryza sativa
How it was run: (§2)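 Read-out is a visual response score from 0 (no effect) to 10 (complete control), assigned by comparison with untreated controls. Treatment was applied at the 2-leaf stage, and plants stayed in the greenhouse for twelve to sixteen days before scoring.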

smallflower flatsedge = assay: Test B flood test smallflower flatsedge; assay type: in vivo, Cyperus difformis
How it was run: as §2

duck salad = assay: Test B flood test duck salad; assay type: in vivo, Heteranthera limosa
How it was run: as §2

[1] = Postemergence, Rate 62 g/ha, scale of 0 to 10, 0 is no effect, 10 is complete control
[2] = Postemergence, Rate 125 g/ha, scale 0 to 10, 0 is no effect, 10 is complete control
[3] = Postemergence, Rate 500 g/ha, scale of 0 to 10 where 0 is no effect and 10 is complete control
[4] = Preemergence, Rate 62 g/ha, scale 0 to 10 (0 no effect, 10 complete control)
[5] = Preemergence, Rate 125 g/ha, scale 0 to 10, 0 is no effect, 10 is complete control
[6] = Preemergence, Rate 500 g/ha, scale of 0 to 10 where 0 is no effect and 10 is complete control
[7] = Rate 250 g/ha, Postemergence, scale of 0 to 10 where 0 is no effect and 10 is complete control
[8] = Rate 500 g/ha, scale of 0 to 10 where 0 is no effect and 10 is complete control
[9] = Rate 250 g/ha, scale of 0 to 10 where 0 is no effect and 10 is complete control
[10] = Rate 62 g/ha, flood test species, Pre-emergence, visual evaluation after twelve to sixteen days
[11] = Rate 125 g/ha, under heading Pre-emergence, flood test species, visual evaluation after twelve to sixteen days
[12] = Rate 250 g/ha, Pre-emergence (flood test species), scale 0 to 10, 0 is no effect, 10 is complete control
[13] = Rate 500 g/ha, Pre-emergence section of Table B, 0 to 10 scale (0 no effect, 10 complete control)

Q: Which “Blackgrass plant response rating” value (blackgrass; [1]) does the source give for CC(C)N(C(=O)n1oc(=O)n(C(C)C(=O)c2ccccc2)c1=O)c1ccccc1 (stereo not drawn) [Compound 570] here?
A: 0

Q: And the “Blackgrass plant response rating” value (blackgrass; [2])?
A: 0

Q: And the “Plant response rating, Blackgrass” value (blackgrass; [3])?
A: 0

Q: And the “Blackgrass plant response rating” value (blackgrass; [4])?
A: 0

Q: And the “Blackgrass plant response rating” value (blackgrass; [5])?
A: 0

Q: And the “Blackgrass plant response rating (0 to 10 scale)” value (blackgrass; Preemergence, Rate 250 g/ha)?
A: 0

Q: And the “Blackgrass plant response rating” value (blackgrass; [6])?
A: 0

Q: And the “Plant response rating, Blackgrass” value (blackgrass; [7])?
A: 0

Q: What about the “Cocklebur plant response rating” value (cocklebur; [1]) of the same molecule?
A: 0

Q: And the “Cocklebur plant response rating” value (cocklebur; [2])?
A: 0

Q: What about the “Plant response rating, Cocklebur” value (cocklebur; [3]) of the same molecule?
A: 0

Q: And the “Cocklebur plant response rating” value (cocklebur; [4])?
A: 0

Q: What about the “Cocklebur plant response rating” value (cocklebur; [5]) of the same molecule?
A: 0

Q: And the “Cocklebur plant response rating (0 to 10 scale)” value (cocklebur; Preemergence, Rate 250 g/ha)?
A: 0

Q: And the “Cocklebur plant response rating” value (cocklebur; [6])?
A: 0

Q: And the “Plant response rating, Cocklebur” value (cocklebur; [7])?
A: 0

Q: What about the “Corn plant response rating” value (corn; [1]) of the same molecule?
A: 0

Q: And the “Corn plant response rating” value (corn; [2])?
A: 0

Q: What about the “Plant response rating, Corn” value (corn; [3]) of the same molecule?
A: 0

Q: What about the “Corn plant response rating” value (corn; [4]) of the same molecule?
A: 0

Q: And the “Corn plant response rating” value (corn; [5])?
A: 0

Q: And the “Corn plant response rating (0 to 10 scale)” value (corn; Preemergence, Rate 250 g/ha)?
A: 0

Q: What about the “Corn plant response rating” value (corn; [6]) of the same molecule?
A: 0

Q: And the “Plant response rating, Corn” value (corn; [7])?
A: 0

Q: And the “Crabgrass plant response rating” value (crabgrass; [1])?
A: 0

Q: What about the “Crabgrass plant response rating” value (crabgrass; [2]) of the same molecule?
A: 0

Q: And the “Plant response rating, Crabgrass” value (crabgrass; [3])?
A: 0

Q: What about the “Crabgrass plant response rating” value (crabgrass; [4]) of the same molecule?
A: 9

Q: And the “Crabgrass plant response rating” value (crabgrass; [5])?
A: 9

Q: And the “Crabgrass plant response rating (0 to 10 scale)” value (crabgrass; Preemergence, Rate 250 g/ha)?
A: 9

Q: What about the “Crabgrass plant response rating” value (crabgrass; [6]) of the same molecule?
A: 10

Q: And the “Plant response rating, Crabgrass” value (crabgrass; [7])?
A: 0

Q: And the “Giant foxtail plant response rating” value (giant foxtail; [1])?
A: 0

Q: And the “Giant foxtail plant response rating” value (giant foxtail; [2])?
A: 0

Q: And the “Plant response rating, Giant foxtail” value (giant foxtail; [3])?
A: 0

Q: What about the “Giant foxtail plant response rating” value (giant foxtail; [4]) of the same molecule?
A: 0

Q: What about the “Giant foxtail plant response rating” value (giant foxtail; [5]) of the same molecule?
A: 0

Q: And the “Giant foxtail plant response rating (0 to 10 scale)” value (giant foxtail; Preemergence, Rate 250 g/ha)?
A: 9

Q: And the “Giant foxtail plant response rating” value (giant foxtail; [6])?
A: 9

Q: What about the “Plant response rating, Giant foxtail” value (giant foxtail; [7]) of the same molecule?
A: 0

Q: And the “Morningglory plant response rating” value (morningglory; [1])?
A: 4

Q: And the “Morningglory plant response rating” value (morningglory; [2])?
A: 10

Q: And the “Plant response rating, Morningglory” value (morningglory; [3])?
A: 10

Q: What about the “Morningglory plant response rating” value (morningglory; [4]) of the same molecule?
A: 0

Q: And the “Morningglory plant response rating” value (morningglory; [5])?
A: 0

Q: And the “Morningglory plant response rating (0 to 10 scale)” value (morningglory; Preemergence, Rate 250 g/ha)?
A: 0

Q: What about the “Morningglory plant response rating” value (morningglory; [6]) of the same molecule?
A: 0

Q: What about the “Plant response rating, Morningglory” value (morningglory; [7]) of the same molecule?
A: 10

Q: And the “Plant response rating, Redroot pigweed” value (pigweed; [8])?
A: 0

Q: And the “Redroot pigweed plant response rating” value (pigweed; [4])?
A: 0

Q: What about the “Redroot pigweed plant response rating” value (pigweed; [5]) of the same molecule?
A: 0

Q: And the “Redroot pigweed plant response rating (0 to 10 scale)” value (pigweed; Preemergence, Rate 250 g/ha)?
A: 0

Q: And the “Redroot pigweed plant response rating” value (pigweed; [6])?
A: 8

Q: And the “Plant response rating, Redroot pigweed” value (pigweed; [9])?
A: 0

Q: What about the “Rape plant response rating” value (rape; [1]) of the same molecule?
A: 0

Q: And the “Rape plant response rating” value (rape; [2])?
A: 0

Q: And the “Plant response rating, Rape” value (rape; [3])?
A: 0

Q: What about the “Rape plant response rating” value (rape; [4]) of the same molecule?
A: 0

Q: What about the “Rape plant response rating” value (rape; [5]) of the same molecule?
A: 0

Q: And the “Rape plant response rating (0 to 10 scale)” value (rape; Preemergence, Rate 250 g/ha)?
A: 0

Q: What about the “Rape plant response rating” value (rape; [6]) of the same molecule?
A: 0

Q: And the “Plant response rating, Rape” value (rape; [7])?
A: 0

Q: What about the “Plant response rating, Soybean” value (soybean; [8]) of the same molecule?
A: 3

Q: What about the “Soybean plant response rating” value (soybean; [4]) of the same molecule?
A: 0

Q: And the “Soybean plant response rating” value (soybean; [5])?
A: 0

Q: And the “Soybean plant response rating (0 to 10 scale)” value (soybean; Preemergence, Rate 250 g/ha)?
A: 0

Q: And the “Soybean plant response rating” value (soybean; [6])?
A: 0

Q: What about the “Plant response rating, Soybean” value (soybean; [9]) of the same molecule?
A: 3

Q: What about the “Plant response rating, Sugarbeets” value (sugar beet; [8]) of the same molecule?
A: 0

Q: What about the “Sugarbeets plant response rating” value (sugar beet; [4]) of the same molecule?
A: 0

Q: What about the “Sugarbeets plant response rating” value (sugar beet; [5]) of the same molecule?
A: 0

Q: And the “Sugarbeets plant response rating (0 to 10 scale)” value (sugar beet; Preemergence, Rate 250 g/ha)?
A: 0

Q: What about the “Sugarbeets plant response rating” value (sugar beet; [6]) of the same molecule?
A: 2

Q: What about the “Plant response rating, Sugarbeets” value (sugar beet; [9]) of the same molecule?
A: 0

Q: What about the “Plant response rating, Velvetleaf” value (velvetleaf; [8]) of the same molecule?
A: 0

Q: What about the “Velvetleaf plant response rating” value (velvetleaf; [4]) of the same molecule?
A: 0

Q: And the “Velvetleaf plant response rating” value (velvetleaf; [5])?
A: 0

Q: What about the “Velvetleaf plant response rating (0 to 10 scale)” value (velvetleaf; Preemergence, Rate 250 g/ha) of the same molecule?
A: 0

Q: And the “Velvetleaf plant response rating” value (velvetleaf; [6])?
A: 0

Q: And the “Plant response rating, Velvetleaf” value (velvetleaf; [9])?
A: 0

Q: What about the “Plant response rating, Wheat” value (wheat; [8]) of the same molecule?
A: 0

Q: What about the “Wheat plant response rating” value (wheat; [4]) of the same molecule?
A: 0

Q: And the “Wheat plant response rating” value (wheat; [5])?
A: 0

Q: What about the “Wheat plant response rating (0 to 10 scale)” value (wheat; Preemergence, Rate 250 g/ha) of the same molecule?
A: 0

Q: What about the “Wheat plant response rating” value (wheat; [6]) of the same molecule?
A: 0

Q: And the “Plant response rating, Wheat” value (wheat; [9])?
A: 0

Q: What about the “Nutsedge plant response rating” value (purple nutsedge; [1]) of the same molecule?
A: 0

Q: What about the “Nutsedge plant response rating” value (purple nutsedge; [2]) of the same molecule?
A: 0

Q: And the “Plant response rating, Nutsedge” value (purple nutsedge; [3])?
A: 0

Q: And the “Nutsedge plant response rating” value (purple nutsedge; [4])?
A: 0

Q: And the “Nutsedge plant response rating” value (purple nutsedge; [5])?
A: 0

Q: And the “Nutsedge plant response rating” value (purple nutsedge; [6])?
A: 0

Q: What about the “Plant response rating, Nutsedge” value (purple nutsedge; [7]) of the same molecule?
A: 0

Q: And the “Plant response rating, Rice (0 to 10 scale, 0 is no effect, 10 is complete control)” value (rice; [10])?
A: 0

Q: And the “Rice plant response rating (0 to 10 scale, 0 is no effect, 10 is complete control)” value (rice; [11])?
A: 0

Q: And the “Rice plant response rating” value (rice; [12])?
A: 0

Q: What about the “Rice plant response rating” value (rice; [13]) of the same molecule?
A: 0

Q: And the “Plant response rating, S. Flatsedge (0 to 10 scale, 0 is no effect, 10 is complete control)” value (smallflower flatsedge; [10])?
A: 0

Q: What about the “S. Flatsedge plant response rating (0 to 10 scale, 0 is no effect, 10 is complete control)” value (smallflower flatsedge; [11]) of the same molecule?
A: 0

Q: What about the “S. Flatsedge plant response rating” value (smallflower flatsedge; [12]) of the same molecule?
A: 0

Q: And the “S. Flatsedge plant response rating” value (smallflower flatsedge; [13])?
A: 0

Q: What about the “Plant response rating, Ducksalad (0 to 10 scale, 0 is no effect, 10 is complete control)” value (duck salad; [10]) of the same molecule?
A: 0

Q: And the “Ducksalad plant response rating (0 to 10 scale, 0 is no effect, 10 is complete control)” value (duck salad; [11])?
A: 0

Q: And the “Ducksalad plant response rating” value (duck salad; [12])?
A: 0

Q: What about the “Ducksalad plant response rating” value (duck salad; [13]) of the same molecule?
A: 0
